Tests used:
human V1a receptor = biological target: T1, human V1a receptor (Homo sapiens, UniProt P37288); assay: Cellular in vitro assay for vasopressin receptor activity, V1a receptor cell line (photoprotein luminescence); assay type: cell-based; details: Table 1A, compounds of the invention
T1 construct: expressed in transfected cells; host or cells: CHO K1 (ATCC), also stably transfected with a modified aequorin
Experimental: (§1) B-1. Cellular In Vitro Assay for Determining Vasopressin Receptor Activity
The identification of agonists and antagonists of the V1a and V2 vasopressin receptors from humans, rats and dogs as well as the quantification of the activity of the compounds of the invention is carried out using recombinant cell lines. These cell lines originally derive from a hamster's ovary epithelial cell (Chinese Hamster Ovary, CHO K1, ATCC: American Type Culture Collection, Manassas, Va. 20108, USA). The test cell lines constitutively express the human, rat or dog V1a or V2 receptors. In case of the Gαq-coupled V1a receptors, cells are also stably transfected with a modified form of the calcium-sensitive photoproteins aequorin (human and rat V1a) or obelin (dog V1a), which, after reconstitution with the cofactor coelenterazine, emit light when there are increases in free calcium concentrations [Rizzuto R, Simpson A W, Brini M, Pozzan T, Nature, 358, 325-327 (1992); Illarionov B A, Bondar V S, Illarionova V A, Vysotski E S, Gene, 153 (2), 273-274 (1995)]. The resulting vasopressin receptor cells react to stimulation of the recombinantly expressed V1a receptors by intracellular release of calcium ions, which can be quantified by the resulting photoprotein luminescence. The Gs-coupled V2 receptors are stably transfected into cell lines expressing the gene for firefly luciferase under control of a CRE-responsible promoter. Activation of V2 receptors induces the activation of the CRE-responsive promoter via cAMP increase, thereby inducing the expression of firefly luciferase. The light emitted by photoproteins of V1a cell lines as well as the light emitted by firefly luciferase of V2 cell lines corresponds to the activation or inhibition of the respective vasopressin receptor. The bioluminescence of the cell lines is detected using a suitable luminometer [Milligan G, Marshall F, Rees S, Trends in Pharmacological Sciences, 17, 235-237 (1996)].
Vasopressin V1a Receptor Cell Lines:
On the day before the assay, the cells are plated out in culture medium (DMEM/F12, 2% FCS, 2 mM glutamine, 10 mM HEPES, 5 μg/ml coelenterazine) in 384-well microtiter plates and kept in a cell incubator (96% humidity, 5% v/v CO2, 37° C.). On the day of the assay, test compounds in various concentrations are placed for 10 minutes in the wells of the microtiter plate before the agonist [Arg^8]-vasopressin at EC50 concentration is added. The resulting light signal is measured immediately in a luminometer.
Table 1A below lists individual IC50 values for the compounds of the invention (including racemic mixtures as well as separated enantiomers) that were obtained from cell lines transfected with the human V1a or V2 receptor: […]

human V2 receptor = biological target: T2, human V2 receptor (Homo sapiens, UniProt P30518); assay: Cellular in vitro assay for vasopressin receptor activity, V2 receptor cell line (CRE-luciferase); assay type: cell-based; details: Table 1A; compounds of the invention; CHO cell line transfected with human V2 receptor, [Arg8]-vasopressin at EC50; read-out: IC50 hV2
T2 construct: expressed in transfected cells; host or cells: CHO K1 (ATCC) line expressing firefly luciferase under a CRE-responsive promoter
Experimental: as §1
The identification of agonists and antagonists of the V1a and V2 vasopressin receptors from humans, rats and dogs as well as the quantification of the activity of the compounds of the invention is carried out using recombinant cell lines. These cell lines originally derive from a hamster's ovary epithelial cell (Chinese Hamster Ovary, CHO K1, ATCC: American Type Culture Collection, Manassas, Va. 20108, USA). The test cell lines constitutively express the human, rat or dog V1a or V2 receptors. […] The resulting vasopressin receptor cells react to stimulation of the recombinantly expressed V1a receptors by intracellular release of calcium ions, which can be quantified by the resulting photoprotein luminescence. […] The bioluminescence of the cell lines is detected using a suitable luminometer [Milligan G, Marshall F, Rees S, Trends in Pharmacological Sciences, 17, 235-237 (1996)]. […]
On the day before the assay, the cells are plated out in culture medium (DMEM/F12, 2% FCS, 2 mM glutamine, 10 mM HEPES) in 384-well microtiter plates and kept in a cell incubator (96% humidity, 5% v/v CO2, 37° C.). […] Upon addition of the cell lysis reagent Triton™ and the substrate luciferin, luminescence of firefly luciferase is measured in a luminometer. […]

T1 sequence (P37288 whole entry): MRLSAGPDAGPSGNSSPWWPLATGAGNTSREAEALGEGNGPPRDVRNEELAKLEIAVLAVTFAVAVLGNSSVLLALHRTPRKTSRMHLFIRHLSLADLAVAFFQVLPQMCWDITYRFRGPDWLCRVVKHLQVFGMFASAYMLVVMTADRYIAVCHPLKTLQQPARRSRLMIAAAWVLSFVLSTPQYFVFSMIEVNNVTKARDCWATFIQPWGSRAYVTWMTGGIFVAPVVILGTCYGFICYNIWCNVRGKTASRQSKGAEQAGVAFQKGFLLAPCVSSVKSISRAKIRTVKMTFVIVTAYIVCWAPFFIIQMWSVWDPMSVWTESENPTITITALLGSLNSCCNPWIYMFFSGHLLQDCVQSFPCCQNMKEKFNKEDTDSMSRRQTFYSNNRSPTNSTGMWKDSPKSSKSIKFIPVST
T2 sequence (P30518 whole entry): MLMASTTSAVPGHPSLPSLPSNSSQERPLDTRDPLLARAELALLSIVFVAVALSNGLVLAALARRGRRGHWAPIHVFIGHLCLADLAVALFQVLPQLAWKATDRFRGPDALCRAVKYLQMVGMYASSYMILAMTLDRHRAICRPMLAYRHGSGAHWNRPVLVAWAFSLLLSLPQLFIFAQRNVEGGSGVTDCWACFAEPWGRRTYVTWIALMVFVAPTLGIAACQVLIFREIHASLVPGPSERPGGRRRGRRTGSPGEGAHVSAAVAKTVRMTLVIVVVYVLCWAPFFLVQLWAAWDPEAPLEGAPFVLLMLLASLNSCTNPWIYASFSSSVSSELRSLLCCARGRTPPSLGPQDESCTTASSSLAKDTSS

IC50 (human V1a receptor; CHO cell line transfected with human V1a receptor, [Arg8]-vasopressin at EC50, read-out: IC50 hV1a): 5.3 nM
ratio IC50 hV2/hV1a (human V1a receptor; selectivity ratio): 66.0
IC50 (human V2 receptor): 350 nM
SMILES: NC(=O)c1nc(Cn2nc(-c3ccc(Cl)cc3)n(CC(=O)C(F)(F)F)c2=O)nn1-c1ncccc1C(F)(F)F [Example 17, 3-{[3-(4-Chlorophenyl)-5-oxo-4-(3,3,3-trifluoro-2-oxopropyl)-4,5-dihydro-1H-1,2,4-triazol-1-yl]methyl}-1-[3-(trifluoromethyl)pyridin-2-yl]-1H-1,2,4-triazole-5-carboxamide (ketone form) or 3-{[3-(4-Chlorophenyl)-5-oxo-4-(3,3,3-trifluoro-2,2-dihydroxypropyl)-4,5-dihydro-1H-1,2,4-triazol-1-yl]methyl}-1-[3-(trifluoromethyl)pyridin-2-yl]-1H-1,2,4-triazole-5-carboxamide (hydrate form)]

— patent US11091463B2, “Amide-substituted pyridinyltriazole derivatives and uses thereof” (BAYER PHARMA AKTIENGESELLSCHAFT, priority 2016, dated 2021)
